Source: patent US7396837B2, “Antitumoral analogs of lamellarins” (Pharma Mar, S.A.U., priority 2002, dated 2008)
Like-named read-outs stand apart in the source and are kept apart here.

Tests used:
Type in all cases: cell-based
[1] = system: K-562; assay: SRB colorimetric cell growth inhibition assay, K-562; conditions: Homo sapiens, K562, K-562
In short: (§1)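 Continuous-exposure format, human tumour lines. SRB colour reaction quantifies growth/viability. Triplicate wells → mean ± SD → GI, TGI, LC.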

[2] = system: SK-MEL-28; assay: SRB colorimetric cell growth inhibition assay, SK-MEL-28
In short: as §1

[3] = system: IGROV; assay: SRB colorimetric cell growth inhibition assay, IGROV; conditions: Homo sapiens, IGROV
In short: as §1

[4] = system: DU-145; assay: SRB colorimetric cell growth inhibition assay, DU-145; conditions: Homo sapiens, DU-145, DU-145
In short: as §1

[5] = system: SKOV-3; assay: SRB colorimetric cell growth inhibition assay, SKOV-3; conditions: Homo sapiens
Description: (§2) Inhibition of Cell Growth by Colorimetric Assay.
(§3) A colorimetric type of assay, using sulforhodamine B (SRB) reaction has been adapted for a quantitative measurement of cell growth and viability (following the technique described by P. A. Skehan, et al., J. Natl. Cancer Inst. 1990, 82, 1107-1112).
(§4) This form of assay employs 96 well cell culture microplates of 9 mm diameter (T. Mosmann et al., J. of Immunological Methods 1983, 65, 55-63; G. T. Faircloth et al., J. of Tissue and Culture Methods 1988, 11, 201-205).
(§5) Most of the cell lines are obtained from American Type Culture Collection (ATCC) derived from different human cancer types.
(§6) The values for mean +/− SD of data from triplicate wells are calculated. Some parameters for cellular responses can be calculated: GI=growth inhibition, TGI=total growth inhibition (cytostatic effect) and LC=cell killing (cytotoxic effect).

[6] = system: LoVo; assay: SRB colorimetric cell growth inhibition assay, LoVo; conditions: Homo sapiens; for CC50: LC=cell killing (cytotoxic effect); for IC (TGI): TGI=total growth inhibition (cytostatic effect), read-out: TGI LOVO
In short: as §1

[7] = system: LoVo-Dox; assay: SRB colorimetric cell growth inhibition assay, LoVo-Dox (MDR)
In short: as §1

[8] = system: LNCaP; assay: SRB colorimetric cell growth inhibition assay, LNCaP; conditions: Homo sapiens, LNCaP, LN-caP
In short: as §1

[9] = system: IGROV-ET; assay: SRB colorimetric cell growth inhibition assay, IGROV-ET (ET-743 resistant); conditions: Homo sapiens; for CC50: LC=cell killing (cytotoxic effect)
In short: as §1

[10] = system: HT-29; assay: SRB colorimetric cell growth inhibition assay, HT-29; conditions: Homo sapiens; for CC50: LC=cell killing (cytotoxic effect); for IC (TGI): TGI=total growth inhibition (cytostatic effect), read-out: TGI HT-29
In short: as §1

[11] = system: SK-BR-3; assay: SRB colorimetric cell growth inhibition assay, SK-BR-3; conditions: Homo sapiens, SK-BR-3, SK-BR-3
In short: as §1

[12] = system: A-549; assay: SRB colorimetric cell growth inhibition assay, A-549; conditions: for GI50: GI=growth inhibition, read-out: GI50 A-549; for CC50: LC=cell killing (cytotoxic effect); for IC (TGI): TGI=total growth inhibition (cytostatic effect), read-out: TGI A-549
In short: as §1

[13] = system: PANC-1; assay: SRB colorimetric cell growth inhibition assay, PANC-1; conditions: Homo sapiens; for CC50: LC=cell killing (cytotoxic effect)
In short: as §1

[14] = system: H-MEC-1; assay: SRB colorimetric cell growth inhibition assay, H-MEC-1; conditions: Homo sapiens, TGI=total growth inhibition (cytostatic effect)
Description: as §2, §3, §4, §5, §6

[15] = Homo sapiens, SK-MEL-28, MEL-28; TGI=total growth inhibition (cytostatic effect); read-out: TGI MEL-28
[16] = Homo sapiens, LOVO-DOX; TGI=total growth inhibition (cytostatic effect); read-out: TGI LOVO-DOX

COc1cc(-c2c3n(c4c(=O)oc5cc(OC(=O)[C@H](C)N)c(OC)cc5c24)CCc2cc(OC(=O)[C@H](C)N)c(OC)cc2-3)ccc1OC(=O)[C@H](C)N [Compound 42]
GI50 ([1]; GI=growth inhibition, read-out: GI50 K-562): 0.313 µM | CC50 ([1]; LC=cell killing (cytotoxic effect), read-out: LC50 K-562): 5.42 µM | IC (TGI) ([1]; TGI=total growth inhibition (cytostatic effect), read-out: TGI K-562): 1.79 µM | GI50 ([2]; Homo sapiens, SK-MEL-28, MEL-28; GI=growth inhibition; read-out: GI50 MEL-28): 1.23 µM | CC50 ([2]; Homo sapiens, SK-MEL-28, MEL-28; LC=cell killing (cytotoxic effect); read-out: LC50 MEL-28): 8.94 µM | IC (TGI) [2, 15]: 3.32 µM | GI50 ([3]; GI=growth inhibition, read-out: GI50 IGROV): 0.185 µM | CC50 ([3]; LC=cell killing (cytotoxic effect), read-out: LC50 IGROV): 2.83 µM | IC (TGI) ([3]; TGI=total growth inhibition (cytostatic effect), read-out: TGI IGROV): 0.56 µM | GI50 ([4]; GI=growth inhibition, read-out: GI50 DU-145): 0.365 µM | CC50 ([4]; LC=cell killing (cytotoxic effect), read-out: LC50 DU-145): 9.46 µM | IC (TGI) ([4]; TGI=total growth inhibition (cytostatic effect), read-out: TGI DU-145): 2.28 µM | GI50 ([5]; SK-OV-3, SKOV-3, GI=growth inhibition, read-out: GI50 SKOV-3): 1.24 µM | CC50 ([5]; SK-OV-3, SKOV-3, LC=cell killing (cytotoxic effect), read-out: LC50 SKOV-3): 9.46 µM | IC (TGI) ([5]; SK-OV-3, SKOV-3, TGI=total growth inhibition (cytostatic effect), read-out: TGI SKOV-3): 4.44 µM | GI50 ([6]; LoVo, GI=growth inhibition, read-out: GI50 LOVO): 0.463 µM | CC50 ([6]; LoVo, read-out: LC50 LOVO): 9.46 µM | IC (TGI) ([6]; LoVo): 3.63 µM | GI50 ([7]; Homo sapiens, LOVO-DOX; GI=growth inhibition; read-out: GI50 LOVO-DOX): 0.395 µM | CC50 ([7]; Homo sapiens, LOVO-DOX; LC=cell killing (cytotoxic effect); read-out: LC50 LOVO-DOX): 9.46 µM | IC (TGI) [7, 16]: 2.32 µM | GI50 ([8]; GI=growth inhibition, read-out: GI50 LN-caP): 0.377 µM | CC50 ([8]; LC=cell killing (cytotoxic effect), read-out: LC50 LN-caP): 4.91 µM | IC (TGI) ([8]; TGI=total growth inhibition (cytostatic effect), read-out: TGI LN-caP): 1.41 µM | GI50 ([9]; IGROV-ET, GI=growth inhibition, read-out: GI50 IGROV-ET): 0.238 µM | CC50 ([9]; IGROV-ET, read-out: LC50 IGROV-ET): 6.62 µM | IC (TGI) ([9]; IGROV-ET, TGI=total growth inhibition (cytostatic effect), read-out: TGI IGROV-ET): 0.678 µM | GI50 ([10]; HT-29, HT-29, GI=growth inhibition, read-out: GI50 HT-29): 3.91 µM | CC50 ([10]; HT-29, HT-29, read-out: LC50 HT-29): 9.46 µM | IC (TGI) ([10]; HT-29, HT-29): 9.46 µM | GI50 ([11]; GI=growth inhibition, read-out: GI50 SK-BR-3): 2 µM | CC50 ([11]; LC=cell killing (cytotoxic effect), read-out: LC50 SK-BR-3): 8.04 µM | IC (TGI) ([11]; TGI=total growth inhibition (cytostatic effect), read-out: TGI SK-BR-3): 4.01 µM | GI50 ([12]; Homo sapiens, A549, A-549): 0.735 µM | CC50 ([12]; Homo sapiens, A549, A-549, read-out: LC50 A-549): 9.46 µM | IC (TGI) ([12]; Homo sapiens, A549, A-549): 2.99 µM | GI50 ([13]; PANC-1, PANC-1, GI=growth inhibition, read-out: GI50 PANC-1): 0.732 µM | CC50 ([13]; PANC-1, PANC-1, read-out: LC50 PANC-1): 9.46 µM | IC (TGI) ([13]; PANC-1, PANC-1, TGI=total growth inhibition (cytostatic effect), read-out: TGI PANC-1): 4.06 µM

COc1cc(-c2c3n(c4c(=O)oc5cc(OC(=O)[C@H](C)NC(=O)OC(C)(C)C)c(OC)cc5c24)CCc2c-3cc(OC)c(OC)c2OC(=O)[C@H](C)NC(=O)OC(C)(C)C)ccc1OC(=O)[C@H](C)NC(=O)OC(C)(C)C [Compound 46]
IC (TGI) [2, 15]: 0.00417 µM | IC (TGI) ([2]; Homo sapiens, SK-MEL-28; MEL-28; TGI=total growth inhibition (cytostatic effect); read-out: TGI MEL-28): 9.57 µM | CC50 ([5]; SK-OV-3, read-out: LC50 SKOV-3): 9.57 µM | CC50 ([6]; LoVo, read-out: LC50 LOVO, LOVO): 9.57 µM | IC (TGI) ([6]; LoVo): 0.00932 µM | IC (TGI) ([6]; LOVO): 9.57 µM | IC (TGI) ([14]; HMEC-1, read-out: TGI H-MEC-1, H-MEC-1): 9.57 µM | IC (TGI) ([14]; HMEC-1, H-MEC-1, read-out: TGI H-MEC-1): 0.000847 µM | IC (TGI) [7, 16]: 0.0957 µM | CC50 ([7]; Homo sapiens, read-out: LC50 LOVO-DOX, LOVO-DOX; LC=cell killing (cytotoxic effect)): 9.57 µM | IC (TGI) ([7]; Homo sapiens; LOVO-DOX; TGI=total growth inhibition (cytostatic effect); read-out: TGI LOVO-DOX): 9.57 µM | CC50 ([9]; read-out: LC50 IGROV-ET, IGROV-ET): 9.57 µM | CC50 ([10]; HT-29, read-out: LC50 HT-29, HT-29): 9.57 µM | IC (TGI) ([10]; HT-29): 9.57 µM | GI50 ([12]; A-549): 2.33 µM | GI50 ([12]; Homo sapiens, A549, A-549): 1.31 µM | IC (TGI) ([12]; Homo sapiens, A549, A-549): 9.57 µM | CC50 ([12]; Homo sapiens, A549, read-out: LC50 A-549, A-549): 9.57 µM | CC50 ([13]; PANC-1, read-out: LC50 PANC-1, PANC-1): 9.57 µM
